Data published in patent US9695180B2 (Incyte Corporation, priority 2014, dated 2017).
Where two headings read alike, the source gives them in different places.

Target: LSD-1 enzyme (Homo sapiens (Human), UniProt O60341)
Assay: LANCE LSD1/KDM1A demethylase assay (LSD1 histone demethylase biochemical assay)
Experimental: Example A: LSD1 Histone Demethylase Biochemical Assay
LANCE LSD1/KDM1A demethylase assay—10 μL of 1 nM LSD-1 enzyme (ENZO BML-SE544-0050) in the assay buffer (50 mM Tris, pH 7.5, 0.01% Tween-20, 25 mM NaCl, 5 mM DTT) were preincubated for 1 hour at 25° C. with 0.8 μL compound/DMSO dotted in black 384 well polystyrene plates. […] Reactions were stopped by addition of 10 μL 1× LANCE Detection Buffer (PerkinElmer CR97-100) supplemented with 1.5 nM Eu-anti-unmodified H3K4 Antibody (PerkinElmer TRF0404), and 225 nM LANCE Ultra Streptavidin (PerkinElmer TRF102) along with 0.9 mM Tranylcypromine-HCl (Millipore 616431). After stopping the reactions plates were incubated for 30 minutes and read on a PHERAstar FS plate reader (BMG Labtech).

Structure (SMILES)	IC50 [nM]	IC50 (1 nM LSD-1 enzyme, 1 hour preincubation at 25° C., Biotin-labeled Histone H3 peptide substrate, read-out: IC50) [nM]
Cc1ccc(-c2c(-c3ccc(C#N)cc3)nc(NC3CCN(C)CC3)c3nccn23)cc1 [Example 17, 4-{5-(4-methylphenyl)-8-[(1-methylpiperidin-4-yl)amino]imidazo[1,2-a]pyrazin-6-yl}benzonitrile]	50 to 500	
Cc1ccc(-c2c(-c3ccc(C#N)cc3)nc(C(=O)NC3CN(C)C3)c3nccn23)cc1 [Example 25, 6-(4-cyanophenyl)-N-(1-methylazetidin-3-yl)-5-(4-methylphenyl)imidazo[1,2-a]pyrazine-8-carboxamide]	50 to 500	
CN1CCC[C@@H](COc2nc(-c3ccc(C#N)cc3)c(-c3cc(F)c(CO)c(F)c3)n3ccnc23)C1 [Example 83, 4-(5-[3,5-difluoro-4-(hydroxymethyl)phenyl]-8-{[(3R)-1-methylpiperidin-3-yl]methoxy}imidazo[1,2-a]pyrazin-6-yl)benzonitrile]	50 to 500	
Cc1ccc(-c2cn3c(-c4ccc(C)cc4)c(-c4ccc(C#N)cc4)nc(OC[C@@H]4CCNC4)c3n2)cc1 [Example 35, 4-{2,5-bis(4-methylphenyl)-8-[(3R)-pyrrolidin-3-ylmethoxy]imidazo[1,2-a]pyrazin-6-yl}benzonitrile]	50 to 500	
CN1C(=O)CCc2ccc(-c3c(-c4ccc(C#N)cc4)nc(N4CCC(N(C)C)CC4)c4nccn34)cc21 [Example 108, 4-[8-[4-(dimethylamino)piperidin-1-yl]-5-(1-methyl-2-oxo-1,2,3,4-tetrahydroquinolin-7-yl)imidazo[1,2-a]pyrazin-6-yl]benzonitrile]	50 to 500	
COC(=O)N(C)c1ccc(-c2c(-c3ccc(C#N)cc3)nc(OC[C@@H]3CCCN(C)C3)c3nccn23)cc1 [Example 77]	50 to 500	
CN(C)c1ncc(-c2c(-c3ccc(C#N)cc3)nc(OC[C@@H]3CCNC3)c3nccn23)cn1 [Example 31, 4-{5-[2-(dimethylamino)pyrimidin-5-yl]-8-[(3R)-pyrrolidin-3-ylmethoxy]imidazo[1,2-a]pyrazin-6-yl}benzonitrile]	50 to 500	
Cc1ccc(-c2c(-c3ccc(C#N)cc3)nc(NCCc3csc(N)n3)c3nccn23)cc1 [Example 23, 4-[8-{[2-(2-amino-1,3-thiazol-4-yl)ethyl]amino}-5-(4-methylphenyl)imidazo[1,2-a]pyrazin-6-yl]benzonitrile]	50 to 500	
Cc1ccc(-c2c(-c3ccc(C#N)cc3)nc(NCCC3CCCN3C)c3nccn23)cc1 (stereo not shown) [Example 16, 4-(5-(4-methylphenyl)-8-{[2-(1-methylpyrrolidin-2-yl)ethyl]amino}imidazo[1,2-a]pyrazin-6-yl)benzonitrile]	50 to 500	
N#Cc1ccc(-c2nc(OC[C@@H]3CCNC3)c3nccn3c2-c2ccc(Cl)cc2)cc1 [Example 27, 4-{5-(4-chlorophenyl)-8-[(3R)-pyrrolidin-3-ylmethoxy]imidazo[1,2-a]pyrazin-6-yl}benzonitrile]	50 to 500	
CN1CCC[C@@H](COc2nc(-c3ccc(C#N)cc3)c(-c3ccc(CO)cc3)n3ccnc23)C1 [Example 74, 4-(5-[4-(hydroxymethyl)phenyl]-8-{[(3R)-1-methylpiperidin-3-yl]methoxy}imidazo[1,2-a]pyrazin-6-yl)benzonitrile]	50 to 500	
CN1CCC[C@@H](COc2nc(-c3ccc(C#N)cc3)c(-c3ccc4c(c3)CC(O)C4)n3ccnc23)C1 (single isomer, unassigned) [78 (peak 2)]		< 50
CN1CCC[C@@H](COc2nc(-c3ccc(C#N)cc3)c(-c3ccc(CN4CCOCC4)cc3F)n3ccnc23)C1 [Example 89, 4-(5-[2-fluoro-4-(morpholin-4-ylmethyl)phenyl]-8-{[(3R)-1-methylpiperidin-3-yl]methoxy}imidazo[1,2-a]pyrazin-6-yl)benzonitrile]	50 to 500	
CN1CCC[C@@H](COc2nc(-c3ccc(C#N)cc3)c(-c3ccc(CN4CCOCC4)cc3)n3ccnc23)C1 [Example 75, 4-{8-{[(3R)-1-methylpiperidin-3-yl]methoxy}-5-[4-(morpholin-4-ylmethyl)phenyl]imidazo[1,2-a]pyrazin-6-yl}benzonitrile]	50 to 500	
C[C@H](O)c1nc2cc(-c3c(-c4ccc(C#N)cc4)nc(N4CCC(N(C)C)CC4)c4nccn34)ccc2n1C [Example 114, 4-(8-[4-(dimethylamino)piperidin-1-yl]-5-{2-[(1S)-1-hydroxyethyl]-1-methyl-1H-benzimidazol-5-yl}imidazo[1,2-a]pyrazin-6-yl)benzonitrile]	50 to 500	
Cc1ccc(-c2c(-c3ccc(C#N)cc3)nc(OC[C@@H]3CCNC3)c3nc(C(F)(F)F)cn23)cc1 [Example 34, 4-[5-(4-methylphenyl)-8-[(3R)-pyrrolidin-3-ylmethoxy]-2-(trifluoromethyl)imidazo[1,2-a]pyrazin-6-yl]benzonitrile]	50 to 500	

Structure (SMILES)	IC50 [nM]	IC50 (1 nM LSD-1 enzyme, 1 hour preincubation at 25° C., Biotin-labeled Histone H3 peptide substrate, read-out: IC50) [nM]
COc1cc(-c2c(-c3ccc(C#N)cc3)nc(N3CCC(N(C)C)CC3)c3nccn23)cnc1C [Example 116, 4-[8-[4-(dimethylamino)piperidin-1-yl]-5-(5-methoxy-6-methylpyridin-3-yl)imidazo[1,2-a]pyrazin-6-yl]benzonitrile]	50 to 500	
CN(C)[C@H]1CCN(Cc2nc(-c3ccc(C#N)cc3)c(-c3ccc(N4CCCC4=O)nc3)n3ccnc23)C1 [Example 56, 4-{8-{[(3S)-3-(dimethylamino)pyrrolidin-1-yl]methyl}-5-[6-(2-oxopyrrolidin-1-yl)pyridin-3-yl]imidazo[1,2-a]pyrazin-6-yl}benzonitrile]	50 to 500	
CN1CC[C@@H](COc2nc(-c3ccc(C#N)cc3)c(-c3ccc(N(C)C)nc3)n3ccnc23)C1 [Example 32, 4-(5-[6-(dimethylamino)pyridin-3-yl]-8-{[(3R)-1-methylpyrrolidin-3-yl]methoxy}imidazo[1,2-a]pyrazin-6-yl)benzonitrile]	50 to 500	
Cc1ccc(-c2c(-c3ccc(C#N)cc3)nc(CO[C@@H]3CCNC3)c3nccn23)cc1 [Example 3, 4-(5-(4-methylphenyl)-8-{[(3R)-pyrrolidin-3-yloxy]methyl}imidazo[1,2-a]pyrazin-6-yl)benzonitrile]	50 to 500	
Cc1ccc(-c2c(-c3ccc(C#N)cc3)nc(OC[C@@H]3CCCN(C)C3)c3nccn23)cc1CN1CCN(S(C)(=O)=O)CC1 [Example 71, 4-(5-(4-methyl-3-{[4-(methylsulfonyl)piperazin-1-yl]methyl}phenyl)-8-{[(3R)-1-methylpiperidin-3-yl]methoxy}imidazo[1,2-a]pyrazin-6-yl)benzonitrile]	50 to 500	
N#Cc1ccc(-c2nc(OC[C@@H]3CCNC3)c3nccn3c2-c2ccc(C(F)(F)F)cc2)cc1 [Example 28, 4-{8-[(3R)-pyrrolidin-3-ylmethoxy]-5-[4-(trifluoromethyl)phenyl]imidazo[1,2-a]pyrazin-6-yl}benzonitrile]	50 to 500	
CN1CCC[C@@H](COc2nc(-c3ccc(C#N)cc3)c(-c3ccc(N(C)C)nc3)n3ccnc23)C1 [Example 51, 4-(5-[6-(dimethylamino)pyridin-3-yl]-8-{[(3R)-1-methylpiperidin-3-yl]methoxy}imidazo[1,2-a]pyrazin-6-yl)benzonitrile]	50 to 500	
CCN1CCC[C@@H](COc2nc(-c3ccc(C#N)cc3)c(-c3cnc4c(ccn4C)c3)n3ccnc23)C1 [Example 61, 4-[8-{[(3R)-1-ethylpiperidin-3-yl]methoxy}-5-(1-methyl-1H-pyrrolo[2,3-b]pyridin-5-yl)imidazo[1,2-a]pyrazin-6-yl]benzonitrile]	50 to 500	
Cc1ccc(-c2c(-c3ccc(C#N)cc3)nc(CCN3CC[C@@H](N(C)C)C3)c3nccn23)cc1 [Example 6, 4-[8-{2-[(3R)-3-(dimethylamino)pyrrolidin-1-yl]ethyl}-5-(4-methylphenyl)imidazo[1,2-a]pyrazin-6-yl]benzonitrile]	500 to 1000	
Cc1ccc(-c2c(-c3ccc(C#N)cc3)nc(N(C)C(=O)N3CC[C@@H](N(C)C)C3)c3nccn23)cc1 [Example 21, (3R)—N-[6-(4-cyanophenyl)-5-(4-methylphenyl)imidazo[1,2-a]pyrazin-8-yl]-3-(dimethylamino)-N-methylpyrrolidine-1-carboxamide]	50 to 500	
CCN1CCC[C@@H](COc2nc(-c3ccc(C#N)cc3)c(-c3ccc4c(c3)oc(=O)n4C)n3ccnc23)C1 [Example 63, 4-[8-{[(3R)-1-ethylpiperidin-3-yl]methoxy}-5-(3-methyl-2-oxo-2,3-dihydro-1,3-benzoxazol-6-yl)imidazo[1,2-a]pyrazin-6-yl]benzonitrile]	50 to 500	
Cn1c(=O)oc2cc(-c3c(-c4ccc(C#N)cc4)nc(OC[C@@H]4CCCN(CCC#N)C4)c4nccn34)ccc21 [Example 64, 4-[8-{[(3R)-1-(2-cyanoethyl)piperidin-3-yl]methoxy}-5-(3-methyl-2-oxo-2,3-dihydro-1,3-benzoxazol-6-yl)imidazo[1,2-a]pyrazin-6-yl]benzonitrile]	50 to 500	
COc1ncc(-c2c(-c3ccc(C#N)cc3)nc(OC[C@@H]3CCCN(C)C3)c3nccn23)cc1F [Example 84, 4-(5-(5-fluoro-6-methoxypyridin-3-yl)-8-{[(3R)-1-methylpiperidin-3-yl]methoxy}imidazo[1,2-a]pyrazin-6-yl)benzonitrile]	50 to 500	
Cc1cc(-c2c(-c3ccc(C#N)cc3)nc(OC[C@@H]3CCCN(C)C3)c3nccn23)ccc1C(C)O (stereo partly drawn) [Example 86, 4-(5-[4-(1-hydroxyethyl)-3-methylphenyl]-8-{[(3R)-1-methylpiperidin-3-yl]methoxy}imidazo[1,2-a]pyrazin-6-yl)benzonitrile]	50 to 500	
CN1CCC[C@@H](COc2nc(-c3ccc(C#N)cc3)c(-c3cnc4c(cnn4C)c3)n3ccnc23)C1 [Example 54, 4-[8-{[(3R)-1-methylpiperidin-3-yl]methoxy}-5-(1-methyl-1H-pyrazolo[3,4-b]pyridin-5-yl)imidazo[1,2-a]pyrazin-6-yl]benzonitrile]	50 to 500	
